Results from US7900639B2, “Reconstituted tobaccos containing additive materials” (R. J. Reynolds Tobacco Company, priority 2003, dated 2011).

What was measured:
[1] = room temperature
Procedure: The tobacco blend is extracted batch wise at about 130° F. using about 10 to about 15 parts tap water for each part tobacco material. Aqueous tobacco extract is separated from the water insoluble pulp using a centrifuge. The aqueous extract so provided has a soluble solids content of about 5%. The resulting extract is concentrated to a soluble solids content of about 22% to about 28% using a wiped film evaporator. The prepared extract is divided into two portions. To one portion, d-, l-alpha tocopherol is contacted with the resulting mixture (the test extract). […] In the other portion, no d-, l-alpha tocopherol is added, and as such a control extract is provided.
The concentrated liquid tobacco extracts with and without added d-, l-alpha tocopherol mixture are vigorously mixed or homogenized and allowed to set at room temperature conditions for five days.

[2] = tested on: bacteria; assay: Extracts tested for bacterial growth; details: test extract versus control extract without additive

## Cc1c(C)c2c(c(C)c1O)CCC(C)(CCCC(C)CCCC(C)CCCC(C)C)O2 (stereo not drawn) [d-, l-alpha tocopherol]
[1]; approximately 4% d-, l-alpha tocopherol on dried solids, five days, control began to ferment within two days
  condition of aqueous tobacco extract containing the additive on storage: remained unchanged
[1]; emulsified in test extract, five day test period
  separation of the additive in the tobacco extract: no separation
[2]
  bacteria activity in the extract: significantly reduce
